This is an account of results in US5556744A, “Methods and compositions for diagnosing and treating certain HIV infected patients” (The Trustees of the University of Pennsylvania, priority 1994, dated 1996).

What all share (parameters): species or system human
In assay [1] the test system is sera samples (antibodies). Put plainly: ELISA peptide-binding of maternal sera, MN strain peptides (Example 7). To be noted: for Correlation of peptide binding with non-transmission (in words): Example 7; for % Bound, Non-Transmitter / No. of Sera Samples Bound, Non-Transmitter / % Bound, Transmitter / No. of Sera Samples Bound, Transmitter: n = 5. As for the experimental part:
This example provides additional sera screens using peptides corresponding to sequences of the MN strain. The sera samples (5 transmitters and 5 non-transmitters) were obtained from the NIH and differ from those screened in the previous studies. Peptide binding was analyzed by ELISA as described in Example 3.
In general terms: ELISA stands for enzyme-linked immunosorbent assay.

The subject of assay [2] is maternal HIV+ sera (antibodies). Put plainly: RIA / ELISA binding of maternal HIV+ sera to gp120 and gp41 peptides (Example 3). The method, boiled down:
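Peptides were coated at 10 μg/ml in carbonate buffer pH 9.6 and blocked with 1% BSA. Sera at 1:50 and 1:500 were incubated overnight at 4°C and detected with ¹²⁵I anti-human IgG (RIA) or HRP/TMB at OD450 (ELISA). Specific binding was taken as peptide minus no-peptide wells, scored as a ratio to normal human serum.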

Assay [3] deals with maternal sera (antibodies). Put plainly: ELISA peptide-binding of maternal sera (Example 6). The note with it: for Number of Non-Transmitters which bound to peptide / Percent of Non-Transmitters which bound to peptide: N = 12; for Number of Transmitters which bound to peptide / Percent of Transmitters which bound to peptide: N = 4. The method, boiled down: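 Third-trimester maternal sera, from HIV-1 transmitting and non-transmitting mothers, were tested by ELISA against ~16-residue peptides spanning HIV-1 external and transmembrane glycoproteins. Each serum was run with at least 40 peptides, and values are the percentage of sera binding each peptide.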

Where [4] appears, read: Serum No. 1, Non-Transmission Group.
Setting [5] is: Serum No. 2, Non-Transmission Group.
Setting [6] is: Serum No. 3, Non-Transmission Group.
[7] abbreviates: Serum No. 4, Transmission Group.
[8] abbreviates: Serum No. 5, Transmission Group.
Setting [9] is: Serum No. 6, Non-Transmission Group.
Where [10] appears, read: Serum No. 7, Non-Transmission Group.
The mark [11] stands for this setting: Serum No. 8, Non-Transmission Group.
[12] abbreviates: Serum No. 9, Non-Transmission Group.
Setting [13] is: Serum No. 10, Transmission Group.
[14] abbreviates: Serum No. 11, Non-Transmission Group.
[15] abbreviates: Serum No. 12, Non-Transmission Group.
Setting [16] is: Serum No. 13, Transmission Group.
Where [17] appears, read: Serum No. 14, Transmission Group.
Where [18] appears, read: Serum No. 15, Transmission Group.
Setting [19] is: Serum No. 16, Non-Transmission Group.
Setting [20] is: Serum No. 17, Non-Transmission Group.
Where [21] appears, read: Serum No. 18, Non-Transmission Group.
Where [22] appears, read: Serum No. 19, Transmission Group.
[23] abbreviates: Serum No. 20, Non-Transmission Group.

DTSGRLVHGFLAIIW [MN-8]: in assay [1], the “Correlation of peptide binding with non-transmission (in words)” value was “selectively correlate with non-transmission”; the “% Bound, Non-Transmitter” value amounted to 80%; the “No. of Sera Samples Bound, Non-Transmitter” value is on record as 4; the “% Bound, Transmitter” value stood at 20%. Also, the “No. of Sera Samples Bound, Transmitter” value in assay [1] was found to be 1.
In the same order, the values of HIPTRIRQGLERALL [MN-11] are “selectively correlate with non-transmission”, 60%, 3, 0% and 0.
Take VSLKCTDLKNDTNTN [Peptide 97]: in assay [2] (Example 3), the “Binding of maternal sera to peptide (in words)” value was “No binding”. Moreover, the “Binding of maternal HIV+ serum to peptide (sera/NHS ratio)” value (“Binding … (sera/NHS ratio)” for short) in assay [2] (setting [4]) was “- (specific OD450 or cpm of sera sample binding to peptide divided by the specific OD450 or cpm of NHS sample binding to peptide, which value is less than 2)”; in assay [2] (setting [5]), “- (specific OD450 or cpm of sera sample binding to peptide divided by the specific OD450 or cpm of NHS sample binding to peptide, which value is less than 2)”; in assay [2] (setting [6]), “- (specific OD450 or cpm of sera sample binding to peptide divided by the specific OD450 or cpm of NHS sample binding to peptide, which value is less than 2)”; in assay [2] (setting [7]), “- (specific OD450 or cpm of sera sample binding to peptide divided by the specific OD450 or cpm of NHS sample binding to peptide, which value is less than 2)”; in assay [2] (setting [8]) it was “- (specific OD450 or cpm of sera sample binding to peptide divided by the specific OD450 or cpm of NHS sample binding to peptide, which value is less than 2)”; in assay [2] (setting [9]), “- (specific OD450 or cpm of sera sample binding to peptide divided by the specific OD450 or cpm of NHS sample binding to peptide, which value is less than 2)”. The “Binding … (sera/NHS ratio)” value is recorded as “- (specific OD450 or cpm of sera sample binding to peptide divided by the specific OD450 or cpm of NHS sample binding to peptide, which value is less than 2)” in assay [2] (setting [10]); “- (specific OD450 or cpm of sera sample binding to peptide divided by the specific OD450 or cpm of NHS sample binding to peptide, which value is less than 2)” in assay [2] (setting [11]); “- (specific OD450 or cpm of sera sample binding to peptide divided by the specific OD450 or cpm of NHS sample binding to peptide, which value is less than 2)” in assay [2] (setting [12]); “- (specific OD450 or cpm of sera sample binding to peptide divided by the specific OD450 or cpm of NHS sample binding to peptide, which value is less than 2)” in assay [2] (setting [13]); “- (specific OD450 or cpm of sera sample binding to peptide divided by the specific OD450 or cpm of NHS sample binding to peptide, which value is less than 2)” in assay [2] (setting [14]); “- (specific OD450 or cpm of sera sample binding to peptide divided by the specific OD450 or cpm of NHS sample binding to peptide, which value is less than 2)” in assay [2] (setting [15]). The “Binding … (sera/NHS ratio)” value in assay [2] (setting [16]) is given as “- (specific OD450 or cpm of sera sample binding to peptide divided by the specific OD450 or cpm of NHS sample binding to peptide, which value is less than 2)”; in assay [2] (setting [17]), “- (specific OD450 or cpm of sera sample binding to peptide divided by the specific OD450 or cpm of NHS sample binding to peptide, which value is less than 2)”; in assay [2] (setting [18]), “- (specific OD450 or cpm of sera sample binding to peptide divided by the specific OD450 or cpm of NHS sample binding to peptide, which value is less than 2)”; in assay [2] (setting [19]), “- (specific OD450 or cpm of sera sample binding to peptide divided by the specific OD450 or cpm of NHS sample binding to peptide, which value is less than 2)”; in assay [2] (setting [20]), “- (specific OD450 or cpm of sera sample binding to peptide divided by the specific OD450 or cpm of NHS sample binding to peptide, which value is less than 2)”; in assay [2] (setting [21]), “- (specific OD450 or cpm of sera sample binding to peptide divided by the specific OD450 or cpm of NHS sample binding to peptide, which value is less than 2)”. For the same sequence, the “Binding … (sera/NHS ratio)” value is listed as “- (specific OD450 or cpm of sera sample binding to peptide divided by the specific OD450 or cpm of NHS sample binding to peptide, which value is less than 2)” in assay [2] (setting [22]) and “- (specific OD450 or cpm of sera sample binding to peptide divided by the specific OD450 or cpm of NHS sample binding to peptide, which value is less than 2)” in assay [2] (setting [23]). Moreover, the “Number of Non-Transmitters which bound to peptide” value in assay [3] is 2. In assay [3], the “Percent of Non-Transmitters which bound to peptide” value came out at 16.7%. Besides, the “Number of Transmitters which bound to peptide” value in assay [3] is 0. For the same sequence, the “Percent of Transmitters which bound to peptide” value in assay [3] stood at 0%.
With WGIKQLQARILAVER [Peptide 120], the “Binding … (sera/NHS ratio)” value is “- (specific OD450 or cpm of sera sample binding to peptide divided by the specific OD450 or cpm of NHS sample binding to peptide, which value is less than 2)” in assay [2] (setting [4]); “- (specific OD450 or cpm of sera sample binding to peptide divided by the specific OD450 or cpm of NHS sample binding to peptide, which value is less than 2)” in assay [2] (setting [5]); “- (specific OD450 or cpm of sera sample binding to peptide divided by the specific OD450 or cpm of NHS sample binding to peptide, which value is less than 2)” in assay [2] (setting [6]); “- (specific OD450 or cpm of sera sample binding to peptide divided by the specific OD450 or cpm of NHS sample binding to peptide, which value is less than 2)” in assay [2] (setting [7]); “- (specific OD450 or cpm of sera sample binding to peptide divided by the specific OD450 or cpm of NHS sample binding to peptide, which value is less than 2)” in assay [2] (setting [8]); “- (specific OD450 or cpm of sera sample binding to peptide divided by the specific OD450 or cpm of NHS sample binding to peptide, which value is less than 2)” in assay [2] (setting [9]). The “Binding … (sera/NHS ratio)” value in assay [2] (setting [10]) is on record as “- (specific OD450 or cpm of sera sample binding to peptide divided by the specific OD450 or cpm of NHS sample binding to peptide, which value is less than 2)”; in assay [2] (setting [11]) it was “- (specific OD450 or cpm of sera sample binding to peptide divided by the specific OD450 or cpm of NHS sample binding to peptide, which value is less than 2)”; in assay [2] (setting [12]) it was “- (specific OD450 or cpm of sera sample binding to peptide divided by the specific OD450 or cpm of NHS sample binding to peptide, which value is less than 2)”; in assay [2] (setting [13]), “- (specific OD450 or cpm of sera sample binding to peptide divided by the specific OD450 or cpm of NHS sample binding to peptide, which value is less than 2)”; in assay [2] (setting [14]), “- (specific OD450 or cpm of sera sample binding to peptide divided by the specific OD450 or cpm of NHS sample binding to peptide, which value is less than 2)”; in assay [2] (setting [15]), “- (specific OD450 or cpm of sera sample binding to peptide divided by the specific OD450 or cpm of NHS sample binding to peptide, which value is less than 2)”. The “Binding … (sera/NHS ratio)” value in assay [2] (setting [16]) is “- (specific OD450 or cpm of sera sample binding to peptide divided by the specific OD450 or cpm of NHS sample binding to peptide, which value is less than 2)”; in assay [2] (setting [17]), “- (specific OD450 or cpm of sera sample binding to peptide divided by the specific OD450 or cpm of NHS sample binding to peptide, which value is less than 2)”; in assay [2] (setting [18]), “- (specific OD450 or cpm of sera sample binding to peptide divided by the specific OD450 or cpm of NHS sample binding to peptide, which value is less than 2)”; in assay [2] (setting [19]) it was “- (specific OD450 or cpm of sera sample binding to peptide divided by the specific OD450 or cpm of NHS sample binding to peptide, which value is less than 2)”; in assay [2] (setting [20]) it was “- (specific OD450 or cpm of sera sample binding to peptide divided by the specific OD450 or cpm of NHS sample binding to peptide, which value is less than 2)”; in assay [2] (setting [21]), “- (specific OD450 or cpm of sera sample binding to peptide divided by the specific OD450 or cpm of NHS sample binding to peptide, which value is less than 2)”. Besides, the “Binding … (sera/NHS ratio)” value was “- (specific OD450 or cpm of sera sample binding to peptide divided by the specific OD450 or cpm of NHS sample binding to peptide, which value is less than 2)” in assay [2] (setting [22]) and “- (specific OD450 or cpm of sera sample binding to peptide divided by the specific OD450 or cpm of NHS sample binding to peptide, which value is less than 2)” in assay [2] (setting [23]). In addition, the “Number of Non-Transmitters which bound to peptide” value in assay [3] came to 0. For the same sequence, the “Percent of Non-Transmitters which bound to peptide” value in assay [3] is reported as 0%. In assay [3], the “Number of Transmitters which bound to peptide” value is reported as 0. For the same sequence, the “Percent of Transmitters which bound to peptide” value in assay [3] was 0%.
